# Entries after “also recorded” stand apart in the source; their conditions may differ. Where a name gives a salt, the structure may show the parent alone.
# Columns and labels:
# [1] = Tail histopathology after 5 days of once daily DMF IV tail vein dosing; type: in vivo, Sprague-Dawley rats; conditions: 5 days of repeated once daily tail vein injections
# [2] = DMF IV formulation development: solubility in solvents and excipient vehicles; type: physicochemical
# Description: 2. […] For example, 2% DMSO (0.1 ml/kg/5 ml/kg*100%=2.0%), 10% PEG400 (1 ml/kg/5 ml/kg*50%=10%) and 20% Captisol (sulfobutyl ether cyclodextrin) (5 ml/kg/5 ml/kg*20%=20%) could be used for rodent IV formulation assumed the dosage of 5 ml/kg. 3. […] The studies were performed by making the PEG400 stock solution and diluting the solution with different vehicles (Table 16). […] 4.
# [3] = Tail histopathology for DMF IV multi-dose tolerability; type: in vivo, C57BL/6 mice; conditions: Study 3, DMF IV 30 mg/kg once a day for 5 consecutive days
# Description: Tissue samples were preserved in 10% neutral buffered formalin (NBF) and then transferred to the Translational Pathology Laboratory for processing into paraffin blocks, slide preparation, and hematoxylin and eosin staining. Histopathology evaluation of the stained slides was performed by the Biogen Idec Comparative Pathology department (data not provided herein).
# A CBC with differential panel was performed at 10 minutes post-last dose via facial vein bleeding, and at 2 hours after the last dose, pharmacodynamic Nrf2 transcriptional responses were analyzed in tissues from the same animals. Histopathology was also performed on regions of the tail in a pilot toxicology study.
# [4] = MMF exposure in malonate model 30 min after last oral dose of DMF; type: in vivo, Sprague-Dawley rats; conditions: 30 minutes after last oral dose of DMF, all doses
# Description: The study and blank brain samples was transferred into Tissue Tubes (TT1) (purchased from Covaris, Inc) and attached to a borosilicate glass tube and placed on dry ice for a minimum of 15 minutes. The samples were pulverized using the Cryoprep System (Covaris Inc.) and transferred to glass tube prior to homogenization. For every 1 part (i.e. 100 mg) of tissue, 2 parts (i.e. 200 μL) of water with 15 mg/mL NaF was added to each glass tube. The tissues were homogenized at 4° C. using Covaris E210 for approximately 3 minutes per sample. The Covaris settings were as follows: Duty Cycle 20%, Intensity 10, and Cycles/Burst 1000. After homogenization […] acetonitrile was added to each glass tube, which was equal to the volume of water added in previously. The homogenates were homogenized with the E210 for an additional 30 sec per sample. […]
# Study plasma samples were on ice. […] A 50 μL aliquot of sample (study samples, blank control, calibration standard or QC sample) was manually transferred into a 96-well plate according to a pre-determined layout. […]
# The HPLC system used consisted of an Agilent 1200 binary pump with a Leap CTC PAL refrigerated autosampler. […] The instrument was equipped with TIS source in negative mode and the analyte was monitored in the MRM mode. […] The concentrations for unknown samples were calculated against Standards. […]
# [5] = tested on: malonate-induced striatal lesion in rats; test: Immunofluorescence microscopy (NeuN, GFAP) of lesioned rat brain sections; type: in vivo, Sprague-Dawley rats; conditions: DMF p.o. 100 mg/kg and vehicle
# Description: For tissue to be analyzed by immunofluorescence, animals were anesthetized and transcardially perfused with 4% paraformaldehyde. Brains were removed and post-fixed overnight at 4° C. Tissue was then transferred to 30% sucrose in PBS. Serial 25-μM frozen sections were cut in the coronal plane and air-dried onto gelatin-coated glass slides. All tissue sections were washed in PBS and blocked with 5% normal goat serum in solution with 0.1% Triton X-100/PBS for 45 minutes at room temperature. Sections were then incubated with monoclonal anti-NeuN (1:500; Millipore, Temecula, Calif., USA) for neurons and polyclonal anti-glial fibrillary acidic protein (GFAP) (1:600) for astrocytes in blocking solution overnight at 4° C. Secondary antibody incubations were for 1 hour at room temperature. All immunofluorescence images were acquired with Openlab and Spectrum software.
compound,measurement,setting,value
"COC(=O)/C=C/C(=O)OC [DMF, dimethyl fumarate]",Histopathology findings in the tail,[1],no treatment-related histopathology findings in the tail
same,Solution or precipitated,"[2]; 5 mg/ml DMF in 15% HPbCD, heating then cooling to room temperature, final pH 3.51",solution
same,Solution or precipitated,"[2]; 5 mg/ml DMF in 20% Captisol, heating then cooling to room temperature, final pH 4.71",clear solution could be achieved
same,Suitable for 5 mg/ml dosage?,[2]; 10% PEG400 + 0.5% HPMC,No
same,Suitable for 5 mg/ml dosage?,[2]; 10% PEG400 + 0.5% HPMC + 0.2% SDS,No
same,Solution or precipitated,"[2]; 10% PEG400 + 0.5% HPMC + 0.2% SDS, final concentration 2.8 mg/ml",precipitated
same,Solution or precipitated,"[2]; 10% PEG400 + 0.5% HPMC, final concentration 2.8 mg/ml",precipitated
same,Suitable for 5 mg/ml dosage?,[2]; 10% PEG400 + 1.5% Poloxamer 188,No
same,Solution or precipitated,"[2]; 10% PEG400 + 1.5% Poloxamer 188, final concentration 2.8 mg/ml",precipitated
same,Suitable for 5 mg/ml dosage?,[2]; 10% PEG400 + 1.5% Poloxamer 237,No
same,Solution or precipitated,"[2]; 10% PEG400 + 1.5% Poloxamer 237, final concentration 2.8 mg/ml",precipitated
same,Suitable for 5 mg/ml dosage?,[2]; 10% PEG400 + 2.0% Tween 80,No
same,Solution or precipitated,"[2]; 10% PEG400 + 2.0% Tween 80, final concentration 2.8 mg/ml",precipitated
same,Suitable for 5 mg/ml dosage?,[2]; 10% PEG400 + 15% HPbCD,Might be
same,Solution or precipitated,"[2]; 10% PEG400 + 15% HPbCD, final concentration 2.8 mg/ml",generated clear solutions at 2.8 mg/ml; also recorded: Clear solution
same,Suitable for 5 mg/ml dosage?,[2]; 10% PEG400 + 20% Captisol,Might be
same,Solution or precipitated,"[2]; 10% PEG400 + 20% Captisol, final concentration 2.8 mg/ml",generated clear solutions at 2.8 mg/ml; also recorded: Clear solution
same,Suitable for 5 mg/ml dosage?,[2]; 10% PEG400 + D5W,No
same,Suitable for 5 mg/ml dosage?,[2]; 10% PEG400 + D5W phosphate buffer (pH 6.0),No
same,Solution or precipitated,"[2]; 10% PEG400 + D5W phosphate buffer (pH 6.0), final concentration 2.8 mg/ml",precipitated
same,Solution or precipitated,"[2]; 10% PEG400 + D5W, final concentration 2.8 mg/ml",precipitated
same,Suitable for 5 mg/ml dosage?,[2]; 10% PEG400 + H2O,No
same,Solution or precipitated,"[2]; 10% PEG400 + H2O, final concentration 2.8 mg/ml",precipitated
same,Suitable for 5 mg/ml dosage?,[2]; 10% PEG400 + Saline (pH 7),No
same,Solution or precipitated,"[2]; 10% PEG400 + Saline (pH 7), final concentration 2.8 mg/ml",precipitated
same,Suitable for 5 mg/ml dosage?,"[2]; 20% Captisol, final pH 4.71","Might be, 5 mg/ml solution could be"
same,solubility,"[2]; DMSO (pure solvent), organic solvent or mixture",23 to 29 mg/mL
same,solubility,"[2]; PEG400, organic solvent or mixture",38 to 46 mg/mL
same,solubility,"[2]; ethanol, organic solvent or mixture",< 20 mg/mL
same,solubility,"[2]; organic solvent or mixture, propylene Glycol (PG)",< 20 mg/mL
same,Tail histology near the injection site,[3],changes similar to that which was observed in vehicle control mice; also recorded: did not reveal any treatment-related findings
same,"MMF concentration in plasma, brain and CSF",[4],"significantly higher in the plasma as compared to both, the Brain and the CSF; also recorded: dose-dependent increase in plasma, CSF and brain concentration of MMF"
same,Astrocytes (GFAP) near the lesion border,[5],Astrocytes appear to survive in both vehicle and DMF treated animals
